Test results: US20060128727A1, “Fungicidal mixtures based on a triazolopyrimidine derivative” (priority 2003, published 2006)

Test system: Plasmopara viticola
Assay: Activity against peronospora of grapevines caused by Plasmopara viticola (protective spray test on potted vines)
Type: in vivo
Details: individual active compound, vines cultivar Riesling
Description: The active compounds, separately or jointly, were prepared as a stock solution comprising 0.25% by weight of active compound in acetone or DMSO. 1% by weight of the emulsifier Uniperol® EL (wetting agent having emulsifying and dispersant action based on ethoxylated alkylphenols) was added to this solution, and the mixture was diluted with water to the desired concentration. USE EXAMPLE
Leaves of potted vines of the cultivar “Riesling” were sprayed to runoff point with an aqueous suspension having the concentration of active compound stated below. The next day, the undersides of the leaves were inoculated with an aqueous zoospore suspension of Plasmopara viticola. The grapevines were then initially placed in a water-vapor-saturated chamber at 24° C. for 48 hours and then in a greenhouse at 20-30° C. for 5 days. After this period of time, the plants were again placed in a humid chamber for 16 hours to promote sporangiophore eruption. The extent of the development of the disease on the undersides of the leaves was then determined visually.
The visually determined percentages of infected leaf areas were converted into efficacies in % of the untreated control:
The efficacy (E) is calculated as follows using Abbot's formula: E=(1−α/β)·100 • α corresponds to the fungicidal infection of the treated plants in % and • β corresponds to the fungicidal infection of the untreated (control) plants in %
An efficacy of 0 means that the infection level of the treated plants corresponds to that of the untreated control plants; an efficacy of 100 means that the treated plants were not infected.
The expected efficacies of mixtures of active compounds were determined using Colby's formula (Colby, S. R. “Calculating synergistic and antagonistic responses of herbicide combinations”, Weeds, 15, 20-22, 1967) and compared with the observed efficacies.
Colby's Formula: E=x+y−x·y/100 • E expected efficacy, expressed in % of the untreated control, when using the mixture of the active compounds A and B at the concentrations a and b • x efficacy, expressed in % of the untreated control, when using the active compound A at the concentration a • y efficacy, expressed in % of the untreated control, when using the active compound B at the concentration b

| SMILES | Efficacy in % of the untreated control (4 ppm in the spray liquor) | Efficacy in % of the untreated control (1 ppm in the spray liquor) | Efficacy in % of the untreated control (63 ppm in the spray liquor) |
| --- | --- | --- | --- |
| CC1CCN(c2c(-c3c(F)cccc3Cl)c(Cl)nc3ncnn23)CC1 [Comparison A] | 0% | – | – |
| C[C@H](Nc1c(-c2c(F)cc(F)cc2F)c(Cl)nc2ncnn12)C(F)(F)F [Comparison B] | 11% | – | – |
| CC1CCN(c2c(-c3c(F)cc(F)cc3F)c(Cl)nc3ncnn23)CC1 [I, 5-chloro-7-(4-methylpiperidin-1-yl)-6-(2,4,6-trifluorophenyl)-[1,2,4]triazolo[1,5-a]pyrimidine] | 56% | – | – |
| Cc1cc(C)nc(Nc2ccccc2)n1 [II-1, (4,6-dimethylpyrimidin-2-yl)phenylamine] | 0% | 0% | 0% |
| Cc1cc(C2CC2)nc(Nc2ccccc2)n1 [II-2, (4-cyclopropyl-6-methylpyrimidin-2-yl)phenylamine] | 0% | 0% | 0% |
| CC#Cc1cc(C)nc(Nc2ccccc2)n1 [II-3, (4-methyl-6-prop-1-ynylpyrimidin-2-yl)phenylamine] | 0% | 0% | 0% |
